Test results as given in patent US12097174B2, “Methods and agents that enhance myogenic progenitor cell engraftment” (President and Fellows of Harvard College, priority 2018, dated 2024).

Test system: ZeMPCs
Assay: Calcium imaging in Fura-2, AM treated ZeMPCs (single-cell imaging)
Format: cell-based, zebrafish
Conditions: 10 μM NFA, 5 μM LPA, 10 μM ionomycin; 10-20 seconds after loading
Procedure: Fura-2, AM treated ZeMPCs were exposed to 10 μM NFA, 5 μM LPA, 10 μM lonomycin (as a positive control) and DMSO (as vehicle control) to visualize their effect on intracellular calcium ion concentration using single-cell imaging. […] Scale bar 50 μm.
The ZeMPCs and C2C12 cells were incubated with Fura-2, AM (Thermo Fisher Sci F1225), a cell permeant fluorescent calcium ion indicator, for 45 minutes at 28.5° C. and 37° C., respectively, followed by imaging with Celldiscoverer7 Microscope (Zeiss). 20 seconds after imaging initiation the treatment was added to the cells and continued for a total of 2-3 minutes.

In the case of lysophosphatidic acid [LPA], the “intracellular calcium ion concentration” value is reported as “increase”.
In the case of O=C(O)c1cccnc1Nc1cccc(C(F)(F)F)c1 [NFA, niflumic acid], the “intracellular calcium ion concentration” value is reported as “increase”.
